Measurements reported in US10328077B2 (CELGENE CORPORATION, priority 2016, dated 2019).
Read-outs that look alike come from different tables or passages of the source.

What was measured:
[1] = tested on: LXFS 573 SCLC patient-derived xenograft
[2] = tested on: NCI-H1417 SCLC xenograft
[3] = molecular target: human LSD-1 (Homo sapiens (Human), UniProt O60341); assay: In vitro enzyme inhibition assay LSD-1 (TR-FRET); assay type: biochemical; conditions: TR-FRET, H3K4me1-biotin labeled peptide
Source text: This assay determines the ability of a test compound to inhibit LSD-1 demethylase activity.
The enzymatic assay of LSD-1 activity is based on Time Resolved-Fluorescence Resonance Energy Transfer (TR-FRET) detection.

[4] = tested on: Kasumi-1 AML cancer cell line; assay: Kasumi-1 AML cell line proliferation assay (Cell-MTS); assay type: cell-based; conditions: Homo sapiens, 168 hours
Source text: Colorimetric cellular assay to assess the ability of LSD-1 small molecule inhibitors to effect the proliferation of the established AML cancer cell line Kasumi-1
This Cell-MTS assay is a 7-day plate based colorimetric assay which quantifies the amount of newly generated NADH in the presence and absence of test compound. These NADH levels are used as a proxy for the quantification of cancer cell proliferation.
The established cancer cell line Kasumi-1 with a verified p53 mutation were purchased from American Type Culture Collection (ATCC) and routinely passaged according to ATCC published protocols. For routine assay these cells were seeded at a density of 20,000 cells per 96-well. […] At the end of this compound incubation period, 80 μl of media is removed and 20 μL of CellTiter 96® AQueous Non-Radioactive Cell Proliferation Assay solution (Promega) is added. The cells are incubated until the OD490 is >0.6. IC50 values are calculated using the IDBS XLfit software package and include background subtracted OD490 values and normalization to DMSO controls.

[5] = tested on: CD11b expression in THP-1 (AML) cells; assay: LSD-1 CD11b cellular assay (flow cytometry); conditions: Homo sapiens, THP-1, 96 h, read-out: THP-1 IC50
[6] = Etoposide 24 mg/kg/day SC days 1-3 + vehicle

| Structure (SMILES) | % TGD [1, 6] [%] | T − C [1, 6] [days] | median TTE [1, 6] [days] | median TTE ([1]; etoposide monotherapy 24 mg/kg SC) [days] | % TGD ([2]; 24 mg/kg Etoposide SC QD x 3) [%] | T − C ([2]; 24 mg/kg Etoposide SC QD x 3) [days] | median TTE ([2]; 24 mg/kg Etoposide SC QD x 3) [days] | median TTE ([2]; etoposide monotherapy 24 mg/kg SC QD×3) [days] | IC50 [3] [µM] | IC50 [4] [µM] | IC50 [5] [µM] |
| --- | --- | --- | --- | --- | --- | --- | --- | --- | --- | --- | --- |
| COc1cc([C@@H]2c3cc4c(cc3[C@@H](O[C@@H]3O[C@@H]5CO[C@@H](C)O[C@H]5[C@H](O)[C@H]3O)[C@H]3COC(=O)[C@H]23)OCO4)cc(OC)c1O [Etoposide, etoposide, reference compound] | 50 | 21 | 63 | 63 | 92 | 24 | 50 | 50 | – | – | – |
| Cn1c(N2CCC(N)CC2)nc(-c2ccc(C#N)c(F)c2)c(-c2ccc3[nH]ncc3c2)c1=O [Example 88, 4-[2-(4-aminopiperidin-1-yl)-5-(1H-indazol-5-yl)-1-methyl-6-oxopyrimidin-4-yl]-2-fluorobenzonitrile] | – | – | – | – | – | – | – | – | < 0.1 | < 0.1 | < 0.1 |
